Reference: patent publication US11352340B2, “Pyridine and pyridimine compounds as PI3K-gamma inhibitors” (Incyte Corporation, priority 2016, dated 2022)
pIC50: −log10 of the molar value. Counter-ions that a name gives are not always drawn. Like-named read-outs stand apart in the source and are kept apart here.

What was measured:
[1] = test system: Phosphorylated Ribosomal Protein S6 (RPS6) in THP-1 cells; test: THP-1 RPS6 ELISA Assay; assay type: cell-based, Human; details: MCP-1 stimulated, phospho-RPS6 ELISA, read-out: THP p-RPS6 ELISA IC50
Procedure, shortened: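 Phospho-RPS6 in lysates measured by ELISA at 450 nm, corrected at 540 nm, after MCP-1 challenge (10 nM, 15 min) of THP-1 cells that were starved overnight and exposed to test compound for 2 h at 37° C, 2×10^5 cells/well. Curve fit of percent inhibition gives IC50.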

[2] = target: PI3Kγ (p110γ) Recombinant Human Protein (Homo sapiens (Human), UniProt P48736); test: PI3K-γ Scintillation Proximity Assay; assay type: biochemical; details: read-out: PI3K-gamma SPA IC50
Procedure, shortened: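 Radiometric SPA: reaction at room temperature for 120 min using 2 μM ATP with [γ-33P]ATP tracer, 20 μM PIP2 substrate and 13 nM human PI3Kγ (MOPS pH 6.7, MgCl2, DTT, CHAPS; 2% DMSO). EDTA quench with WGA beads, scintillation count, and IC50 fit of percent-of-control activity.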

[3] = target: PI3Kδ (p110δ/p85α) Recombinant Human Protein (Homo sapiens (Human), UniProt O00329); test: PI3Kδ Scintillation Proximity Assay; assay type: biochemical; details: read-out: PI3K-delta SPA IC50
Procedure, shortened: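 Radiometric read-out: 33P-labelled PIP3 product captured on WGA SPA beads and counted, with IC50 fitted from percent activity relative to DMSO control. Enzyme (3.4 nM) was incubated 120 min at room temperature with 20 μM PIP2 and 2 μM ATP at pH 6.7, 2% DMSO.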

PI3Kδ (p110δ/p85α) Recombinant Human Protein, sequence (O00329 whole entry): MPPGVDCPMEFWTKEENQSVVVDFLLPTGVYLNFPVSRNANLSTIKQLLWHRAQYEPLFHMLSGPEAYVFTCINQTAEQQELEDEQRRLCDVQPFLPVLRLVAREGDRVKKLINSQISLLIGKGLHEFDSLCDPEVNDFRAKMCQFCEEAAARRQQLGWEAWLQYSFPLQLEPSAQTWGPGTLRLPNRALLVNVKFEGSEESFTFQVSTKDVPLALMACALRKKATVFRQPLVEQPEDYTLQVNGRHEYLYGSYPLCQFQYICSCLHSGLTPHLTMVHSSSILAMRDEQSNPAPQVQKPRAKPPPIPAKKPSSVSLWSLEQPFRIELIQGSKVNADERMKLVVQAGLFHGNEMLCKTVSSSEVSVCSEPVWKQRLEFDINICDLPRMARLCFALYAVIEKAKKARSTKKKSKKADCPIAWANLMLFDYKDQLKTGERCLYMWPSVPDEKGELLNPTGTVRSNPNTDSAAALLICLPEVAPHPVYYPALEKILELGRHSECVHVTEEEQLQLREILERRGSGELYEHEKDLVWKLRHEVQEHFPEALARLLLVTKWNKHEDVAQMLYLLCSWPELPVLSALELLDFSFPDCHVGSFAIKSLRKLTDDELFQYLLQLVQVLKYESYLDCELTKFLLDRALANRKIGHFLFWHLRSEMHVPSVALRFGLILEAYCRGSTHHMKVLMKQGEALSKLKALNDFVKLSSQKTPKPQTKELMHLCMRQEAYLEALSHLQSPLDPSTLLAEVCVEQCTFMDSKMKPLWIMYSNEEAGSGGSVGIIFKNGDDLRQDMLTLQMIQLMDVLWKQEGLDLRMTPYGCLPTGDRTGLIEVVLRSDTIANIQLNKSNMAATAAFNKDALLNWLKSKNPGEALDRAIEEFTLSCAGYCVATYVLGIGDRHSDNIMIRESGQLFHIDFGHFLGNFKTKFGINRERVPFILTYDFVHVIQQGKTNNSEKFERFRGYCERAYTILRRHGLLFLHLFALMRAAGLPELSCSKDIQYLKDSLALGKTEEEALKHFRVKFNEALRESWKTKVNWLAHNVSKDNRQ
PI3Kδ (p110δ/p85α) Recombinant Human Protein, sequence (P27986 whole entry partner): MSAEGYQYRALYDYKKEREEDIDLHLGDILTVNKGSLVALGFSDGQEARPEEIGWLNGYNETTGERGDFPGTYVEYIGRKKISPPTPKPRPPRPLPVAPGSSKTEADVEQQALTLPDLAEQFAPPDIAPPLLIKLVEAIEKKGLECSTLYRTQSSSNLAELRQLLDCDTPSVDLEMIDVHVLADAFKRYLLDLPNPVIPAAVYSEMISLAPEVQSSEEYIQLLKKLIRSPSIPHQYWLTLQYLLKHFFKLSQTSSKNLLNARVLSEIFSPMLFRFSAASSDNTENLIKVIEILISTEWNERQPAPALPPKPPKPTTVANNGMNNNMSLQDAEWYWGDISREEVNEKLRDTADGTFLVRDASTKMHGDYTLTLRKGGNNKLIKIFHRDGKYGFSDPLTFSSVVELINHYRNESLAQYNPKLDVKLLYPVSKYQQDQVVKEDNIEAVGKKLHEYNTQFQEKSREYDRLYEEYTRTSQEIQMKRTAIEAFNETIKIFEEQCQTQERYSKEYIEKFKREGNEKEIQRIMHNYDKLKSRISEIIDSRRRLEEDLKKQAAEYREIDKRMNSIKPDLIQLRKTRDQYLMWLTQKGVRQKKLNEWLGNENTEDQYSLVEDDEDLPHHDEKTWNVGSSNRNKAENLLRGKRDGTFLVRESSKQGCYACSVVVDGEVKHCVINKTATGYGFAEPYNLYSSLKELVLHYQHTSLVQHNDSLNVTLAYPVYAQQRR
PI3Kγ (p110γ) Recombinant Human Protein, sequence (P48736 whole entry): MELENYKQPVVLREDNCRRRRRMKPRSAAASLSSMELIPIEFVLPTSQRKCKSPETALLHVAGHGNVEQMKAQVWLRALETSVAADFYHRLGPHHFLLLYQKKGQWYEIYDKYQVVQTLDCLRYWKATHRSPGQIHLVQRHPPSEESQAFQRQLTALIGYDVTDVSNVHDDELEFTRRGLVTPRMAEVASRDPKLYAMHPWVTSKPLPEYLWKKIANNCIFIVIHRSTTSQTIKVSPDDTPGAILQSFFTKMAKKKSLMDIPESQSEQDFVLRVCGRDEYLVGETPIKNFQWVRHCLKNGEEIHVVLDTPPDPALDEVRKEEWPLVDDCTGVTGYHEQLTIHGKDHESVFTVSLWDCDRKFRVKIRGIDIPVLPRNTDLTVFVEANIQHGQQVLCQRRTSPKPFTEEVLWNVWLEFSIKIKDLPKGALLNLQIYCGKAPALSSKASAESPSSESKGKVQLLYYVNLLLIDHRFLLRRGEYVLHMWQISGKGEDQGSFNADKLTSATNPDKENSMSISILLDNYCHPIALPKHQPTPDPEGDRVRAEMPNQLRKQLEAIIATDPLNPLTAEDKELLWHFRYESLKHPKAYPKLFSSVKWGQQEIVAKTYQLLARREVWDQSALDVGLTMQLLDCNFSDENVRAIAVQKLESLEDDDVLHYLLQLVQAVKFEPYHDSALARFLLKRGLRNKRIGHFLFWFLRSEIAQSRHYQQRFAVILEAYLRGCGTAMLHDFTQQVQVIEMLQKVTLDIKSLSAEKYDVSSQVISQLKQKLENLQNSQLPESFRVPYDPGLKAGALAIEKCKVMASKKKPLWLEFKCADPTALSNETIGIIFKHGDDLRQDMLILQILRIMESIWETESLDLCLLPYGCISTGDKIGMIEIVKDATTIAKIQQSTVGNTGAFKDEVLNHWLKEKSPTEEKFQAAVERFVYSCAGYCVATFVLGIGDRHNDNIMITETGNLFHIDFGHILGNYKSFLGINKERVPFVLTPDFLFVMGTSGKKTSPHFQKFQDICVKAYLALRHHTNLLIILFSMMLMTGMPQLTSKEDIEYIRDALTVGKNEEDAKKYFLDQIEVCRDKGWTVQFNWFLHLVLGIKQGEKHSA

Row | Compound | pIC50 ([1]; Homo sapiens) | pIC50 [2] | pIC50 [3] | pIC50 [1]
1 | Cc1nc(-c2cc(-c3cnn(Cc4ccc(Cl)cc4)c3)ccn2)[nH]c1C [Example 294, 4-(1-(4-Chlorobenzyl)-1H-pyrazol-4-yl)-2-(4,5-dimethyl-1H-imidazol-2-yl)pyridine Trifluoroacetate Salt] | < 5.30 | ≥ 7.30 | < 6.30 | 
2 | Cc1[nH]c(-c2cc(-c3cnn(Cc4ccc(Cl)cc4)c3)ccn2)nc1C(=O)N[C@H]1CCOC1 [Example 295] | 5.30 to 6.00 | ≥ 7.30 | ≥ 6.30 | 
3 | CNC(=O)c1nc(-c2cc(-c3cnn(Cc4ccc(Cl)cc4)c3)ccn2)[nH]c1C [Example 296] | < 5.30 | ≥ 7.30 | < 6.30 | 
4 | Cc1[nH]c(-c2cc(-c3cnn(Cc4ccc(Cl)cc4)c3)ccn2)nc1C#N [Example 297, 2-{4-[1-(4-Chlorobenzyl)-1H-pyrazol-4-yl]pyridin-2-yl}-5-methyl-1H-imidazole-4-carbonitrile Trifluoroacetate Salt] | < 5.30 | ≥ 7.30 | < 6.30 | 
5 | Cc1cnc(-c2cc(-c3cncc(S(=O)(=O)N[C@H]4CC[C@](C)(O)CC4)c3)ccn2)[nH]1 [Example 298, N-((1r,4r)-4-Hydroxy-4-methylcyclohexyl)-2′-(4-methyl-1H-imidazol-2-yl)-[3,4′-bipyridine]-5-sulfonamide Trifluoroacetate Salt] | ≥ 6.52 | ≥ 7.30 | ≥ 7.30 | 
6 | Cc1c[nH]c(-c2cc(-c3cncc(S(=O)(=O)N[C@H]4CC[C@H](O)CC4)c3)ccn2)n1 [Example 299, N-((1r,4r)-4-Hydroxycyclohexyl)-2′-(4-methyl-1H-imidazol-2-yl)-[3,4′-bipyridine]-5-sulfonamide trifluoroacetate salt] |  | ≥ 7.30 | ≥ 7.30 | ≥ 6.52
